Test results as given in patent US6881824B1, “Peptides suitable for use in antigen specific immunosuppressive therapy” (Akzo Nobel N.V., priority 1996, dated 2005).
Blank lines part the entries; values can stand above or below the molecule they belong to. Ends that are not written are not given here.

Key:
[1] = test system: PBMC from RA patients carrying the DR4 (DRB1*0401) specificity; test: Peptide-induced proliferative responses of PBMC from RA patients; format: cell-based, human; details: for Peptide-induced proliferative response of PBMC, RA 259: RA patient 259, 0401, R; for Peptide-induced proliferative response of PBMC, RA 272: RA patient 272, 0401, R; for Peptide-induced proliferative response of PBMC, RA 276: RA patient 276, 0401, R; for Peptide-induced proliferative response of PBMC, RA 286: RA patient 286, 0401, R; for Responses to peptides observed in RA patients only: compared with healthy donors
Experimental: This study included 7 DR4(DRB1*0401)-positive patients diagnosed as suffering from RA according to the ARA criteria (Arnett et al., (1988), Arthritis Rheum. 31, 315). Peripheral blood samples were obtained with informed consent. There were five women and two men aged 46-79 years. Their duration of disease ranged from over 10 to over 30 years. Three out of 7 patients had at least 3 swollen joints. […] All patients were on medication: Four patients were treated with prednisone, three patients received anti-rheumatic agents and 4 patients were treated with NSAID's as well.
(§1) In order to identify T-cell epitopes within HC gp-39, 59 peptides of 16 AA in length, overlapping by 10 AA were tested for their capacity to induce a proliferative response in PBMC from RA patients and healthy controls carrying the DR4 (DRB1*0401) specificity (Table 1).
(§2) PBMC obtained from heparinized venous peripheral blood were isolated by standard centrifugation on a Ficoll-Paque gradient. Cells were cultured in four-fold at a concentration of 1,5×10^5 cells/well in medium supplemented with 10% heat-inactivated, autologous plasma, L-glutamine, 2-ME and antibiotics in flatbottomed microtiter plates. Cells were incubated in medium alone or in the presence of phytohaemagglutinin (PHA) (2:5 μg/ml) to assert cell viability, or in the presence of 10 or 100 μg/ml of the HC gp-39-derived peptides. In several cases, sets of 2 or 3 sequential peptides were tested due to limited PBMC numbers of individual donors. Cultures were incubated in a total volume of 210 μl for 7 days at […] in a humidified atmosphere of 5% CO2. Cultures were pulsed during the last 18 hours with 0.25 μCi ^3H-thymidine ([^3H]TdR). Cells were harvested on glassfiber filters and [^3H] TdR incorporation was measured by gas scintillation (Packard Matrix 96 βcounter). Only peptides inducing a proliferative response at both 10 and 100 μg/ml were considered to contain a T-cell epitope. Responses were defined positive if stimulation index values (SI, antigen-specific counts per 5 min (cp5 m)/background cp5 m) exceeded or equaled 2.
(§3) T-cell reactivity to HC gp-39-derived peptide as analyzed by measuring the PBMC proliferative response in DR4 (DRB1*0401)-positive RA patients and healthy donors. Proliferative responses were tested in autologous plasma. In Table IIIA and IIIB the results of 7 experiments are presented showing the responses of RA patients (Table IIIA) and the responses of healthy donors (Table IIIB) to 59 overlapping sequences derived from HC gp-39.

[2] = test system: PBMC from RA patients and healthy controls carrying the DR4 (DRB1*0401) specificity; test: Proliferative responses of blood mononuclear cells, RA patients and healthy donors taken together; format: cell-based, human; details: individual peptides; any donor
Experimental: as §1, §2, §3

[3] = target: T1, DR4 (DRB1*0401) molecules (Homo sapiens, UniProt P01903+P01911, A100K/A169T/F76Y/I96L/K127E/L162R/M171V/N62H/P40V/Q125Y/R42H/S133A/S149N/S66Y/V115G/V209L/W38E); test: Peptide HLA-DR binding assay (semi-quantitative competition binding); details: for IC50: competition with biotinylated marker peptide HA 309 Y→F, pH5.0, 44 hr RT
T1 construct: molecules were purified from the homozygous EBV-transformed human B lymphoblastoid cell lines Huly138IC2 and BM92 using the mAb; endogenous in cells
Experimental: DR4 (DRB1*0401) and DR4 (DRB1*0404) molecules were purified from the homozygous EBV-transformed human B lymphoblastoid cell lines Huly138IC2 and BM92 using the mAb t243, directed against a monomorphic determinant on the DR-complex (Lampson, L. A and R. Levy (1980), J. Immunol. 125:293 299).
The peptide binding studies were performed using a semi-quantitative competition binding assay (Joosten et al 1994, Int. Immunol. 6, 751). Briefly, purified HLA-DR molecules (30 nM DR4(DRB1*0401) or 15 nM DR4 (DRB1*0404) were incubated at pH5.0 with 50 nM biotinylated marker peptide (HA 309y→F) and a concentration range of competitor peptide in a final volume of 25 μl binding buffer (PBS containing 0.01% […], 0.05% NP-40, 5% DMSO, 1 mM AEBSF, 1 mM N-ethyl maleimide, 8 mM EDTA and 10 μm pepstatin A). After 44 hr of incubation at RT, HLA DR bound marker peptide was separated from free marker peptide using a 96 well vacuum dotblot apparatus (Hybri. dot, BRL) and a nitrocellulose membrane (Hybond ECL, Amersham, UK). The nitrocellulose filters were blocked with 0.5% DNA blocking reagent (Boehringer) in 0.1 M maleic acid, 150 mM NaCl, pH7.5.
After 0.5-1 hr, the filters were washed in PBS, 0.05% Tween 20 (Sigma) and incubated with Strepcavidin-HRPO (Southern Biotechnology) in a 1:10.000 dilution. Biotinylated peptides were detected by enhanced chemiluminescence using a Western Blot ECL kit (Amersham). Exposure of the preflashed films (Hyperfilm-ECL, Amersham) was for 10 min. The spots were analysed by scanning the films and using Image Quant/Excel software for analysis.
The affinity of a given peptide for binding DRB1*0401-encoded molecules was related to competition with the marker peptide. This relative binding affinity was defined as the peptide concentration at which the signal was reduced to 50% (IC50).

[4] = test system: PBMC from healthy donors carrying the DR4 (DRB1*0401) specificity; test: Peptide-induced proliferative responses of PBMC from healthy donors; format: cell-based, human; details: for Responses induced only in healthy donors: healthy donors 230, 235
Experimental: Peripheral blood samples from 5 healthy donors carrying the DR4(DRB1*0401) specificity were obtained with informed consent and included in this study as a control.
as §1, §2, §3

[5] = target: T2, DR4 (DRB1*0401) molecules purified from the homozygous EBV-transformed human B lymphoblastoid cell line … (human, UniProt P01903 26-254); test: competition binding assay on purified DR4(DRB1*0401)
T2 construct: mature; That form is inferred from purification of the native complex

[6] = 100 and 10 microgram/ml, 7 days, 3H-thymidine incorporation

Molecule: MLRLGAPASKLVMGIP [compound 38, MLRLGAPASKLVMGIP]
Peptide-induced proliferative response of PBMC, RA 259 [1, 6]: pos (positive responses to both 100 and 10 microgram/ml of peptide or sets of peptides (SI≧2 were regarded positive)) | Peptide-induced proliferative response of PBMC, RA 262 ([1]; RA patient 262, 0401, R, 100 and 10 microgram/ml, 7 days, 3H-thymidine incorporation): pos (positive responses to both 100 and 10 microgram/ml of peptide or sets of peptides (SI≧2 were regarded positive)) | Peptide-induced proliferative response of PBMC, RA 272 [1, 6]: pos (positive responses to both 100 and 10 microgram/ml of peptide or sets of peptides (SI≧2 were regarded positive)) | Response of PBMC from RA patient 272 to individual peptides, in words [1]: appeared to respond | Peptide-induced proliferative response of PBMC, RA 276 [1, 6]: pos (positive responses to both 100 and 10 microgram/ml of peptide or sets of peptides (SI≧2 were regarded positive)) | Peptide-induced proliferative response of PBMC, RA 286 [1, 6]: pos (positive responses to both 100 and 10 microgram/ml of peptide or sets of peptides (SI≧2 were regarded positive)) | Responses to peptides observed in RA patients only [1]: observed in RA patients only | Responses to the individual peptides (PBMC proliferation), identifying T-cell epitopes [2]: observed in one or more donors | Relative affinity of binding to DR4 (DRB1*0401), in words [3]: intermediate relative affinity | IC50 ([3]; Table IIIA): 10 to 100 µM

Molecule: YTSWSQYREGDGSCFP [peptide 2, YTSWSQYREGDGSCFP]
Peptide-induced proliferative response of PBMC, RA 191 ([1]; RA patient 191, 0401, R, 100 and 10 microgram/ml, 7 days, 3H-thymidine incorporation): pos (positive responses to both 100 and 10 microgram/ml of peptide or sets of peptides (SI≧2 were regarded positive)) | Peptide-induced proliferative response of PBMC, RA 259 [1, 6]: pos (positive responses to both 100 and 10 microgram/ml of peptide or sets of peptides (SI≧2 were regarded positive)) | Peptide-induced proliferative response of PBMC, RA 272 [1, 6]: pos (positive responses to both 100 and 10 microgram/ml of peptide or sets of peptides (SI≧2 were regarded positive)) | Response of PBMC from RA patient 272 to individual peptides, in words [1]: appeared to respond | Peptide-induced proliferative response of PBMC, RA 276 [1, 6]: pos (positive responses to both 100 and 10 microgram/ml of peptide or sets of peptides (SI≧2 were regarded positive)) | Peptide-induced proliferative response of PBMC, RA 286 [1, 6]: pos (positive responses to both 100 and 10 microgram/ml of peptide or sets of peptides (SI≧2 were regarded positive)) | Responses to peptides observed in RA patients only [1]: observed in RA patients only | Responses to the individual peptides (PBMC proliferation), identifying T-cell epitopes [2]: observed in one or more donors | Relative affinity of binding to DR4 (DRB1*0401), in words [3]: intermediate relative affinity | IC50 ([3]; Table IIIA): 10 to 100 µM

Molecule: LAGAMVWALDLDDFQG [compound 55, LAGAMVWALDLDDFQG]
Peptide-induced proliferative response of PBMC, RA 272 [1, 6]: pos (positive responses to both 100 and 10 microgram/ml of peptide or sets of peptides (SI≧2 were regarded positive)) | Response of PBMC from RA patient 272 to individual peptides, in words [1]: appeared to respond | Responses to peptides observed in RA patients only [1]: observed in RA patients only | Responses to the individual peptides (PBMC proliferation), identifying T-cell epitopes [2]: observed in one or more donors | Relative affinity of binding to DR4 (DRB1*0401), in words [3]: relatively high affinity | IC50 ([3]; Table IIIA): < 1 µM

Molecule: SPLFRGQEDASPDRFS [compound 34, SPLFRGQEDASPDRFS]
Peptide-induced proliferative response of PBMC, RA 272 [1, 6]: pos (positive responses to both 100 and 10 microgram/ml of peptide or sets of peptides (SI≧2 were regarded positive)) | Response of PBMC from RA patient 272 to individual peptides, in words [1]: appeared to respond | Responses to peptides observed in RA patients only [1]: observed in RA patients only | Responses to the individual peptides (PBMC proliferation), identifying T-cell epitopes [2]: observed in one or more donors | Relative affinity of binding to DR4 (DRB1*0401), in words [3]: relatively high affinity | IC50 ([3]; Table IIIA): < 1 µM

Relative affinity of binding to DR4 (DRB1*0401), in words [3]: relatively high affinity | IC50 ([3]; Table IIIB): < 1 µM
Molecule: PNLKTLLSVGGWNFGS [compound 12, PNLKTLLSVGGWNFGS]
Responses to the individual peptides (PBMC proliferation), identifying T-cell epitopes [2]: observed in one or more donors | Peptide-induced proliferative response of PBMC, HD 230 ([4]; healthy donor 230, 0401, R, 100 and 10 microgram/ml, 7 days, 3H-thymidine incorporation): pos (positive responses to both 100 and 10 microgram/ml of peptide or sets of peptides (SI>2 were regarded positive)) | Responses induced only in healthy donors [4]: induced only responses in healthy donors

Molecule: MGIPTFGRSFTLASSE [compound 40, MGIPTFGRSFTLASSE]
Peptide-induced proliferative response of PBMC, RA 272 [1, 6]: pos (positive responses to both 100 and 10 microgram/ml of peptide or sets of peptides (SI≧2 were regarded positive)) | Response of PBMC from RA patient 272 to individual peptides, in words [1]: appeared to respond | Peptide-induced proliferative response of PBMC, RA 286 [1, 6]: pos (positive responses to both 100 and 10 microgram/ml of peptide or sets of peptides (SI≧2 were regarded positive)) | Responses to peptides observed in RA patients only [1]: observed in RA patients only | Responses to the individual peptides (PBMC proliferation), identifying T-cell epitopes [2]: observed in one or more donors | Relative affinity of binding to DR4 (DRB1*0401), in words [3]: relatively high affinity | IC50 ([3]; Table IIIA): < 1 µM

Relative affinity of binding to DR4 (DRB1*0401), in words [3]: relatively high affinity | IC50 ([3]; Table IIIB): < 1 µM
Molecule: GRSFTLASSETGVGAP [compound 41, GRSFTLASSETGVGAP]
Responses to the individual peptides (PBMC proliferation), identifying T-cell epitopes [2]: observed in one or more donors | Peptide-induced proliferative response of PBMC, HD 235 ([4]; healthy donor 235, 0401, R, 100 and 10 microgram/ml, 7 days, 3H-thymidine incorporation): pos (positive responses to both 100 and 10 microgram/ml of peptide or sets of peptides (SI>2 were regarded positive)) | Responses induced only in healthy donors [4]: induced only responses in healthy donors

binding result [5]: binds
B1: HC gp-39 peptide 56 (residues printed as 352-377) (peptide)
peptide: WALDLDDFQGSFCGQD
notes: A 16-mer starting at 352 would end at 367, so this is probably a misprint
